The structures appear in SMILES notation.

The subject of series [1] is Mus musculus. Description: Atypical antipsychotic activity in Mus musculus albino (mouse) assessed as inhibition of 5HTP-induced head twitching at 25 mg/kg, ip administered 30 min prior to 5-HTP-challenge measured after 20 min for 5 min.
Series [2] relates to Mus musculus. The series is described as follows: Induction of catalepsy in ip dosed Mus musculus albino (mouse) measured after 20 min for 5 min. In kind it is organism-based. As to conditions: in vivo.
Series [3] concerns Mus musculus. The series is described as follows: Induction of catalepsy in Mus musculus albino (mouse) at 25 mg/kg, ip measured after 20 min for 5 min. The arrangement: dose 25 mg/kg, route intraperitoneal. Format: organism-based. As to conditions: in vivo.
Series [4] has as its system Mus musculus. Description: Atypical antipsychotic activity in Mus musculus albino (mouse) assessed as inhibition of apomorphine-induced climbing behaviour at 60 mg/kg, ip administered 30 min prior to apomorphine-challenge measured after 5 min for 30 min relative to control. As to conditions: route intraperitoneal. In kind it is functional.
For series [5], the species on record is Mus musculus. The series is described as follows: animal or person. To be noted: albino, ip, read-out: INH.
Description: Atypical antipsychotic activity in Mus musculus albino (mouse) assessed as inhibition of apomorphine-induced climbing behaviour at 25 mg/kg, ip administered 30 min prior to apomorphine-challenge measured after 5 min for 30 min relative to control

In the case of `O=c1oc2cc(OCCCN3CCCCC3)ccc2s1`, the inhibition in vivo at 25 mg/kg in the series on Mus musculus [1] is 67.3%. The Activity entry is “Dose-dependent effect” with Mus musculus [2] and 41% in the series on Mus musculus [3]. Besides, in the series on Mus musculus [4], the inhibition in vivo at 60 mg/kg was 51.2%.

In the case of `O=c1oc2cc(OCCCOc3ccc(Cl)cc3)ccc2s1`, in the series on Mus musculus [1], the inhibition in vivo at 25 mg/kg was 77.9%. Moreover, the Activity entry is reported as “Dose-dependent effect” with Mus musculus [2] and 33.71% in the series on Mus musculus [3]. Also, the inhibition in vivo at 60 mg/kg in the series with Mus musculus [4] amounted to 49.3%.

For `O=c1oc2cc(OCCCN3CCNCC3)ccc2s1`, in the series with Mus musculus [1], the inhibition in vivo at 25 mg/kg turned out to be 68.2%. Also, the Activity result was “Dose-dependent effect” with Mus musculus [2] and 42.39% with Mus musculus [3]. Further, the inhibition in vivo at 60 mg/kg in the series with Mus musculus [4] is 62.3%.

As to `CCN(CC)CCCOc1ccc2sc(=O)oc2c1`, in the series on Mus musculus [1], the inhibition in vivo at 25 mg/kg is 63.4%. Moreover, the values for the Activity entry in the series with Mus musculus [2] and with Mus musculus [3] were “Dose-dependent effect” and 37.11%, respectively. Also, in the series with Mus musculus [4], the inhibition in vivo at 60 mg/kg is 53.3%.

With `Cc1ccc(OCCCOc2ccc3sc(=O)oc3c2)cc1`, the inhibition in vivo at 25 mg/kg with Mus musculus [1] was 77.3%. Moreover, the Activity entry is on record as “Dose-dependent effect” in the series with Mus musculus [2] and 39.48% in the series with Mus musculus [3]. Moreover, the inhibition in vivo at 60 mg/kg with Mus musculus [4] was 52.4%.

For the compound `O=C1CCc2ccc(OCCCCN3CCN(c4cccc(Cl)c4Cl)CC3)cc2N1` [ARIPIPRAZOLE], the inhibition in vivo at 25 mg/kg turned out to be 80.2% in the series with Mus musculus [1] and 62.4% in the series filed under Mus musculus [5]. This compound also showed an Activity with Mus musculus [3] of 29.34%.

Regarding `O=c1oc2cc(OCCCOc3ccc4ccccc4c3)ccc2s1`, the inhibition in vivo at 25 mg/kg in the series on Mus musculus [1] is 61.1%. For the same compound, the Activity entry in the series on Mus musculus [2] is “Dose-dependent effect”; in the series on Mus musculus [3] it was 41.22%. In addition, the inhibition in vivo at 60 mg/kg in the series on Mus musculus [4] worked out at 47%.

With `O=c1oc2cc(OCCCOc3ccc([N+](=O)[O-])cc3)ccc2s1`, the inhibition in vivo at 25 mg/kg with Mus musculus [1] was 80%. Further, the Activity result in the series on Mus musculus [2] is listed as “Dose-dependent effect”; in the series on Mus musculus [3], 43.92%. Moreover, the inhibition in vivo at 60 mg/kg with Mus musculus [4] amounted to 67.3%.

As to `O=c1oc2cc(OCCCOc3cccc4ccccc34)ccc2s1`, the inhibition in vivo at 25 mg/kg with Mus musculus [1] worked out at 58.3%. For the same compound, the values for the Activity result with Mus musculus [2] and in the series on Mus musculus [3] were “Dose-dependent effect” and 49.21%, respectively. Further, in the series on Mus musculus [4], the inhibition in vivo at 60 mg/kg was determined as 39%.

On to `O=c1oc2cc(OCCCn3cnnc3)ccc2s1`, for which the inhibition in vivo at 25 mg/kg in the series with Mus musculus [1] was 79.3%. Also, the Activity result in the series with Mus musculus [2] is reported as “Dose-dependent effect”; with Mus musculus [3] it was 36.98%. In the series on Mus musculus [4], the inhibition in vivo at 60 mg/kg came to 70%.

Take `O=c1oc2cc(OCCCN3CCOCC3)ccc2s1`: the inhibition in vivo at 25 mg/kg with Mus musculus [1] was 71.5%. Besides, the Activity result with Mus musculus [2] is recorded as “Dose-dependent effect”; in the series with Mus musculus [3] it was 39.27%. Further, the inhibition in vivo at 60 mg/kg in the series with Mus musculus [4] was 69.6%.

Source of the values: ChEMBL document CHEMBL3046137, “Benzo[d][1,3] oxathiols: synthesis and biological evaluation as potential atypical antipsychotic agents” (Med Chem Res, 2011).
